Experiments:
JAK2 = JAK2 (Homo sapiens (Human), UniProt O60674); assay: Z'-LYTE enzymatic activity detection, JAK2; assay type: biochemical; conditions: test compound 30 nM; for inhibition at 0.03 µM: read-out: JAK2 % inhibitory rate @30 nM
Outline: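 GST-tagged human recombinant kinases with Z′-LYTE peptides (Tyr6 for JAK1, Tyr4 for JAK2 and JAK3), ATP from kit, reacted 1 h at room temperature; development 1 h, ratio 445/520 nm at 400 nm excitation gives phosphorylation. Inhibition vs solvent control at 30 nM (JAK2, JAK3) or 300 nM (JAK1); tofacitinib as positive control.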

HUVEC cells = assay: Cell growth activity assay (MTS), HUVEC cell model; assay type: cell-based; conditions: Homo sapiens, 72 h; for activity at 10 µM: read-out: HUVEC % growth rate @10 μM
Description: MTS assay is a routine method for cell toxicity detection. The basic principle is based on the capacity of dehydrogenase in the mitochondria of living cells to reduce a novel yellow […] MTS to formazan, so that the amount of living cells is proportional to the amount of formazan product by detecting the absorbance at 490 nm (OD), thereby speculating the amount of living cells according to the OD value, and understanding the capacity of the test compound to inhibit the growth of cells or to kill the cells.
HeLa cell is a human cervical cancer cell line, and belongs to epithelial tumor cell line; HUVEC is a human umbilical vein endothelial cell, and belongs to primary endothelial cell; both types of cells express all subtypes except for JAK3.
The change of JAK kinase activity has no significant influence on other cell types except for the immune cells, and both cell models mentioned above are mainly used to evaluate whether there are any other kinase targets besides JAK kinases or there are nonselective cell toxicities.
In this experiment, a cultured cell model is incubated with the test compounds at different concentrations for a specific duration. The effect of the treatment by the test compound on the growth of cells is detected using MTS assay.
MTS is performed according to routine procedure in a 96-well plate.
The model cells are inoculated into each well of the 96-well plate at an appropriate concentration (about 5000 cells/well). After 24 h, the test compounds are added at different concentration gradients (the highest final concentration is 40 μM). A solvent control (DMSO) and a negative control are also performed at the same time. Each experiment is repeated for 3 times. The cells are detected after cultured for another 72 h.
After all culture medium is aspirated out of the well, 100 μL fresh medium and 20 μL pre-formulated mixture of MTS and PMS (in a ratio of 20:1) are added to each well. After incubation at 37° C. for 2 h, it is then detected by a microplate reader (490 nm).
The cell growth inhibitory rate and GI50 of the test compound are calculated as above.
Based on the above method, cytological evaluation is performed to the compounds described herein (for the detection of CTLL-2 cell, the concentration of the test compound is 300 nM; […]).

Chain of JAK2 (O60674 whole entry): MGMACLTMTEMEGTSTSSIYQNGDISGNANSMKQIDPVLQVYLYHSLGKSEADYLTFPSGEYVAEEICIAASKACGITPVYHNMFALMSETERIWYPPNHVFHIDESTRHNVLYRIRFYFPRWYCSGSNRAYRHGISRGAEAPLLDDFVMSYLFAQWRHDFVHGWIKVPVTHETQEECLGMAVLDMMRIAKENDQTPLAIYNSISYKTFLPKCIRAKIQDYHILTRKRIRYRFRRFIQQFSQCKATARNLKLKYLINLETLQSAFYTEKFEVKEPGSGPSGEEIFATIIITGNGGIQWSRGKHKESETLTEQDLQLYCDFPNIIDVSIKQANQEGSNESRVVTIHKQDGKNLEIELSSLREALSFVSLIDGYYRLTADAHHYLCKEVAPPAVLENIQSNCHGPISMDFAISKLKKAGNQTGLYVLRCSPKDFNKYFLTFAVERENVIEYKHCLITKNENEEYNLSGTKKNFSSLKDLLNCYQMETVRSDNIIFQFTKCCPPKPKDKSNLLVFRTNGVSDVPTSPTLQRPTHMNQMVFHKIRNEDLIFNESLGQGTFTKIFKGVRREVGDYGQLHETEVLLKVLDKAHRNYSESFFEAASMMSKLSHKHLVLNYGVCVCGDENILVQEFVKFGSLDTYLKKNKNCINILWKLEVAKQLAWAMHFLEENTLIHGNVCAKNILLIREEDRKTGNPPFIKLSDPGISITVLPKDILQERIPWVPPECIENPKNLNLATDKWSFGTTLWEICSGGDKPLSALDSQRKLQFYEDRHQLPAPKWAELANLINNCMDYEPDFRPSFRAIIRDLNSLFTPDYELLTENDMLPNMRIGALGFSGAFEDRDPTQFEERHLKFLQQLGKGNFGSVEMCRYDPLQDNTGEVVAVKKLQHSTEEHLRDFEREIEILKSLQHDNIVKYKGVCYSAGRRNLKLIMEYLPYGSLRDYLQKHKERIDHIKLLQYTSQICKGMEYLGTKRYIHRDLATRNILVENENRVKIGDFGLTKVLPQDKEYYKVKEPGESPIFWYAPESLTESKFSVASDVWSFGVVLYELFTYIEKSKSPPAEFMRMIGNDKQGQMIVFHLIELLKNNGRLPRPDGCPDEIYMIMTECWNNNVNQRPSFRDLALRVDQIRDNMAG

Compound	JAK2 RV (ratio between the inhibitory rate of the test compound and that of Xeljanz) (JAK2)	inhibition at 0.03 µM (JAK2) [%]	activity at 10 µM (HUVEC cells) [%]	GI50 (HUVEC cells) [µM]
C=CC(=O)N(C)c1cc(Nc2ncc(Cl)c(NCCCNC(=O)c3ccc(C#N)cc3)n2)ccc1F [Example 7, N-(3-(5-chloro-2-(4-fluoro-3-(N-methylacrylamido)phenylamino)pyrimidinyl-4-amino)propyl)-4-cyano-benzamide]	0.08	5	94	> 40
C=CC(=O)N(C)c1cc(Nc2ncc(Cl)c(NCCCNC(=O)c3ccc(C(F)(F)F)cc3)n2)ccc1F [Example 22, N-(3-(5-chloro-2-(4-fluoro-3-(N-methylacrylamido)phenylamino)pyrimidinyl-4-amino)propyl)-4-trifluoromethylbenzamide]	–	0	116	> 40
C=CC(=O)N(C)c1cc(Nc2ncc(Cl)c(NCCCNC(=O)c3ccc(F)cc3)n2)ccc1F [Example 23, N-(3-(5-chloro-2-(4-fluoro-3-(N-methylacrylamido)phenylamino)pyrimidinyl-4-amino)propyl)-4-fluorobenzamide]	–	0	112	> 40
